From patent US12037339B2, “Substituted imidazoles as GLP-1 receptor agonists” (Eccogene Inc., priority 2020, dated 2024)

Target: (Homo sapiens, UniProt P43220)
Assay: h-GLP-1 activity assay (cAMP HTRF, HEK293 cells with stable expression of human GLP-1)
Format: cell-based
Conditions: relative EC50, 10 nM human GLP-1 set as 100% response, 30 min at 37° C.
Experimental: Human GLP-1 agonizing activity was detected in HEK293 cells with stable expression of human GLP-1 by Cisbio cAMP Gs dynamic kit (Catalog #62AM4PEC) according to manufacturer's protocol. Briefly, cells were collected and resuspended in assay buffer containing 0.1% BSA and 0.5 mM of IBMX at concentration to 2.5×10^5 cells/mL. Two μL 5× compound solution and 8 μL cell suspension were added to each well of low-volume 384 white assay plate. After 30 min incubation at 37° C., 5 μL cAMP-d2 working solution and 5 μL anti-cAMP antibody-cryptate were added to each well, and incubate at room temperature for 1 hr. Series dilution of cAMP was used as standard. Human GLP-1 (7-37) was used as positive control and 10 nM human GLP-1 was set as 100% response. HTRF signals were read at 665 and 615 nm with EnVision plate reader and calculated cAMP concentration by interpolation to the standard curve. The EC50 value of the tested compounds was calculated by fitting the dose response curve using a 4-parameter non-linear regression routine and relative EC50 was presented in Table 29.

Chain of (Homo sapiens, UniProt P43220) (P43220 24-463): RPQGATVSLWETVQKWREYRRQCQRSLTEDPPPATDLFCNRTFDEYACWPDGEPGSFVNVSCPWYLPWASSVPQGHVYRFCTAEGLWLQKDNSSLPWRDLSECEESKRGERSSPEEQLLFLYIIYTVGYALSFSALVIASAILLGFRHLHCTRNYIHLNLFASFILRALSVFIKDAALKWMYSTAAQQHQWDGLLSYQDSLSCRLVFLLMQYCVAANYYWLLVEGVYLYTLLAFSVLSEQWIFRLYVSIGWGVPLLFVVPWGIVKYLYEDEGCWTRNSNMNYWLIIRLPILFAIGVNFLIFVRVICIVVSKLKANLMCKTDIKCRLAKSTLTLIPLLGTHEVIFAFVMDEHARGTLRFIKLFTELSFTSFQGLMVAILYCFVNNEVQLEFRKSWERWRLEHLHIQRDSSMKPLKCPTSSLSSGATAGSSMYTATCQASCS

SMILES	EC50
C[C@@H]1c2c(-n3ccn(-c4ccc5c(cnn5C)c4F)c3=O)c(-c3ccc(F)cc3)nn2CCN1C(=O)c1cc2cc([C@H]3CCOC(C)(C)C3)ccc2n1C1(c2noc(=O)[nH]2)CC1 (single isomer, unassigned) [Compound 32]	> 100 nM
C[C@H]1c2c(-n3ccn(-c4ccc5c(cnn5C)c4F)c3=O)c(-c3ccc(F)cc3)nn2CCN1C(=O)c1cc2cc([C@@H]3CCOC(C)(C)C3)ccc2n1C1(c2noc(=O)[nH]2)CC1 (single isomer, unassigned) [Compound 33]	< 20 nM
C[C@@H]1c2c(-n3ccn(-c4ccc5c(cnn5C)c4F)c3=O)c(-c3ccc(F)cc3)nn2CCN1C(=O)c1cc2cc([C@@H]3CCOC(C)(C)C3)ccc2n1C1(c2noc(=O)[nH]2)CC1 (single isomer, unassigned) [Compound 34]	> 100 nM
C[C@H](c1ccc(F)cc1)n1nc2c(c1-n1ccn(-c3ccc4c(cnn4C)c3F)c1=O)[C@H](C)N(C(=O)c1cc3cc([C@@H]4CCOC(C)(C)C4)ccc3n1C1(c3noc(=O)[nH]3)CC1)CC2 (single isomer, unassigned) [Compound 38]	< 20 nM
C[C@H]1c2c(nn([C@@H](C)c3ccc(F)cc3)c2-n2ccn(-c3ccc4c(cnn4C)c3F)c2=O)CCN1C(=O)c1cc2cc([C@H]3CCOC(C)(C)C3)ccc2n1C1(c2noc(=O)[nH]2)CC1 (single isomer, unassigned) [Compound 39]	> 100 nM
C[C@H]1c2c(nn([C@@H](C)c3ccc(F)cc3)c2-n2ccn(-c3ccc4c(cnn4C)c3F)c2=O)CCN1C(=O)c1cc2cc([C@@H]3CCOC(C)(C)C3)ccc2n1C1(c2noc(=O)[nH]2)CC1 (single isomer, unassigned) [Compound 40]	< 20 nM
C[C@H](c1ccc(F)cc1)n1nc2c(c1-n1ccn(-c3ccc4c(cnn4C)c3F)c1=O)[C@H](C)N(C(=O)c1cc3cc([C@H]4CCOC(C)(C)C4)ccc3n1C1(c3noc(=O)[nH]3)CC1)CC2 (single isomer, unassigned) [Compound 41]	> 100 nM
C[C@H]1c2c(nn(C3CCC(F)(F)CC3)c2-n2ccn(-c3ccc4c(cnn4C)c3F)c2=O)CCN1C(=O)c1cc2cc([C@H]3CCOC(C)(C)C3)ccc2n1C1(c2noc(=O)[nH]2)CC1 (single isomer, unassigned) [Compound 43]	> 100 nM
C[C@H]1c2c(nn(C3CCC(F)(F)CC3)c2-n2ccn(-c3ccc4c(cnn4C)c3F)c2=O)CCN1C(=O)c1cc2cc([C@@H]3CCOC(C)(C)C3)ccc2n1C1(c2noc(=O)[nH]2)CC1 (single isomer, unassigned) [Compound 44]	< 20 nM
Cc1cc(-n2nc3c(c2-n2ccn(-c4ccc5c(cnn5C)c4F)c2=O)[C@H](C)N(C(=O)c2cc4cc([C@H]5CCOC(C)(C)C5)ccc4n2Cc2cnc(O)s2)CC3)cc(C)c1F (single isomer, unassigned) [Compound 45]	> 100 nM
Cc1cc(-n2nc3c(c2-n2ccn(-c4ccc5c(cnn5C)c4F)c2=O)[C@H](C)N(C(=O)c2cc4cc([C@@H]5CCOC(C)(C)C5)ccc4n2Cc2cnc(O)s2)CC3)cc(C)c1F (single isomer, unassigned) [Compound 46]	20 to 100 nM
C[C@@H]1c2c(-n3ccn(-c4ccc5c(cnn5C)c4F)c3=O)c(-c3ccc(F)c(Cl)c3)nn2CCN1C(=O)c1cc2cc([C@@H]3CCOC(C)(C)C3)ccc2n1C1(c2noc(=O)[nH]2)CC1 (single isomer, unassigned) [Compound 49]	< 20 nM
C[C@H]1c2c(-n3ccn(-c4ccc5c(cnn5C)c4F)c3=O)c(-c3ccc(F)c(Cl)c3)nn2CCN1C(=O)c1cc2cc([C@@H]3CCOC(C)(C)C3)ccc2n1C1(c2noc(=O)[nH]2)CC1 (single isomer, unassigned) [Compound 50]	> 100 nM
C[C@@H]1c2c(-n3ccn(-c4ccc5c(cnn5C)c4F)c3=O)c(-c3cc(Cl)c(F)c(Cl)c3)nn2CCN1C(=O)c1cc2cc([C@@H]3CCOC(C)(C)C3)ccc2n1C1(c2noc(=O)[nH]2)CC1 (single isomer, unassigned) [Compound 51]	< 20 nM
C[C@H]1c2c(-n3ccn(-c4ccc5c(cnn5C)c4F)c3=O)c(-c3cc(Cl)c(F)c(Cl)c3)nn2CCN1C(=O)c1cc2cc([C@@H]3CCOC(C)(C)C3)ccc2n1C1(c2noc(=O)[nH]2)CC1 (single isomer, unassigned) [Compound 52]	> 100 nM
COCC12CCC(n3ccn(-c4c(-c5ccc(F)cc5)nn5c4[C@H](C)N(C(=O)c4cc6cc(C7CCOCC7)ccc6n4Cc4noc(=O)[nH]4)CC5)c3=O)(CC1)CC2 (single isomer, unassigned) [Compound 53]	> 100 nM
C[C@H]1c2c(nn(C34CC(C3)C4)c2-n2ccn(-c3ccc4c(cnn4C)c3F)c2=O)CCN1C(=O)c1cc2cc([C@H]3CCOC(C)(C)C3)ccc2n1C1(c2noc(=O)[nH]2)CC1 (single isomer, unassigned) [Compound 60]	< 20 nM

SMILES	EC50
C[C@H]1c2c(nn(C34CC(C3)C4)c2-n2ccn(-c3ccc4c(cnn4C)c3F)c2=O)CCN1C(=O)c1cc2cc([C@@H]3CCOC(C)(C)C3)ccc2n1C1(c2noc(=O)[nH]2)CC1 (single isomer, unassigned) [Compound 61]	20 to 100 nM
COCC12CCC(n3ccn(-c4c(-c5ccc(F)cc5)nn5c4[C@H](C)N(C(=O)c4cc6cc([C@@H]7CCOC(C)(C)C7)ccc6n4[C@@]4(c6noc(=O)[nH]6)C[C@@H]4C)CC5)c3=O)(CC1)CC2 (single isomer, unassigned) [Compound 62]	20 to 100 nM
COCC12CCC(n3ccn(-c4c(-c5ccc(F)cc5)nn5c4[C@H](C)N(C(=O)c4cc6cc([C@H]7CCOC(C)(C)C7)ccc6n4[C@@]4(c6noc(=O)[nH]6)C[C@@H]4C)CC5)c3=O)(CC1)CC2 (single isomer, unassigned) [Compound 63]	> 100 nM
C[C@H]1c2c(-n3ccn(-c4ccc5c(cnn5C)c4F)c3=O)c(-c3ccc(F)c(C(F)(F)F)c3)nn2CCN1C(=O)c1cc2cc([C@@H]3CCOC(C)(C)C3)ccc2n1C1(c2noc(=O)[nH]2)CC1 (single isomer, unassigned) [Compound 65]	< 20 nM
C[C@@H]1c2c(-n3ccn(-c4ccc5c(cnn5C)c4F)c3=O)c(-c3ccc(F)c(C(F)(F)F)c3)nn2CCN1C(=O)c1cc2cc([C@@H]3CCOC(C)(C)C3)ccc2n1C1(c2noc(=O)[nH]2)CC1 (single isomer, unassigned) [Compound 66]	> 100 nM
C[C@H]1c2c(nn(-c3ccc(F)c(Cl)c3)c2-n2ccn(-c3ccc4c(cnn4C)c3F)c2=O)CCN1C(=O)c1cc2cc([C@@H]3CCOC(C)(C)C3)ccn2c1C1(c2noc(=O)[nH]2)CC1 (single isomer, unassigned) [Compound 67]	< 20 nM
Cc1cc(-c2nn3c(c2-n2ccn(-c4ccc5c(cnn5C)c4F)c2=O)[C@@H](C)N(C(=O)c2cc4cc([C@@H]5CCOC(C)(C)C5)ccn4c2C2(c4noc(=O)[nH]4)CC2)CC3)cc(C)c1F (single isomer, unassigned) [Compound 68]	< 20 nM
Cc1cc(-c2nn3c(c2-n2ccn(-c4ccc5c(cnn5C)c4F)c2=O)[C@@H](C)N(C(=O)c2cn4cc([C@@H]5CCOC(C)(C)C5)ccc4c2C2(c4noc(=O)[nH]4)CC2)CC3)cc(C)c1F (single isomer, unassigned) [Compound 69]	< 20 nM
C[C@H]1c2c(nn(-c3ccc(F)c(F)c3)c2-n2ccn(-c3ccc4c(cnn4C)c3F)c2=O)CCN1C(=O)c1cn2cc([C@@H]3CCOC(C)(C)C3)ccc2c1C1(c2noc(=O)[nH]2)CC1 (single isomer, unassigned) [Compound 70]	< 20 nM
C[C@H]1c2c(nn(-c3ccc(F)c(C(F)(F)F)c3)c2-n2ccn(-c3ccc4c(cnn4C)c3F)c2=O)CCN1C(=O)c1cn2cc([C@@H]3CCOC(C)(C)C3)ccc2c1C1(c2noc(=O)[nH]2)CC1 (single isomer, unassigned) [Compound 71]	< 20 nM
C[C@H]1c2c(nn(-c3cc(F)c(F)c(F)c3)c2-n2ccn(-c3ccc4c(cnn4C)c3F)c2=O)CCN1C(=O)c1cc2cc([C@@H]3CCOC(C)(C)C3)ccn2c1C1(c2noc(=O)[nH]2)CC1 (single isomer, unassigned) [Compound 72]	< 20 nM
C[C@H]1c2c(nn(-c3ccc(F)c(C(F)(F)F)c3)c2-n2ccn(-c3ccc4c(cnn4C)c3F)c2=O)CCN1C(=O)c1cc2cc([C@@H]3CCOC(C)(C)C3)ccn2c1C1(c2noc(=O)[nH]2)CC1 (single isomer, unassigned) [Compound 74]	< 20 nM
C[C@H]1c2c(nn(-c3cc(F)c(F)c(F)c3)c2-n2ccn(-c3ccc4c(cnn4C)c3F)c2=O)CCN1C(=O)c1cn2cc([C@@H]3CCOC(C)(C)C3)ccc2c1C1(c2noc(=O)[nH]2)CC1 (single isomer, unassigned) [Compound 75]	< 20 nM
Cc1cc(-n2nc3c(c2-n2ccn(-c4ccc5c(cnn5C)c4F)c2=O)[C@H](C)N(C(=O)c2cc4cc([C@@H]5CCOC(C)(C)C5)ccn4c2C2(c4noc(=O)[nH]4)CC2)CC3)ccc1F (single isomer, unassigned) [Compound 77]	< 20 nM
C[C@H]1c2c(nn(-c3ccc(F)c(F)c3)c2-n2ccn(-c3ccc4c(cnn4C)c3F)c2=O)CCN1C(=O)c1cc2cc([C@@H]3CCOC(C)(C)C3)ccn2c1C1(c2noc(=O)[nH]2)CC1 (single isomer, unassigned) [Compound 78]	< 20 nM
Cc1cc(-n2nc3c(c2-n2ccn(-c4ccn5c(C)nnc5c4)c2=O)[C@H](C)N(C(=O)c2cn4cc([C@@H]5CCOC(C)(C)C5)ccc4c2C2(c4noc(=O)[nH]4)CC2)CC3)cc(C)c1F (single isomer, unassigned) [Compound 79]	< 20 nM
